Data on 5 compounds can be found in paper PMC8129988 (Inorganic Chemistry Frontiers, 2021).

Each structure is given as a SMILES string. Like-named read-outs stand apart in the source and are kept apart here.

The test system of one data set is K-562 cells. The data set can be described thus: cell-associated LPon fluorescence by flow cytometry (ligand release). The class given is cell-based, human. As to conditions: 24 h, 10 μM, normoxic. The procedure: Prior to the evaluation of the anticancer activity of our novel derivatives in cell culture models, we examined the stability of Co(acac)2LPon and Co(Meacac)2LPon in the presence of cells under normoxic conditions. The stability was determined by the appearance of LPon-associated fluorescence (vide supra) in BCR-ABL-driven K-562 leukemia cells via flow cytometry. […] Despite significant LPon-release from the two complexes over time (up to 24 h), in case of Co(Meacac)2LPon cell-associated fluorescence remained more than 7.5-fold lower after 24 h as compared to the free ligand.
Next, the impact of hypoxia on the stability of our novel derivatives was evaluated by monitoring intracellular fluorescence intensities under normoxic (21% O2) vs. hypoxic (0.1% O2) conditions. […] Hypoxic fluorescence activation in case of both cobalt(III) complexes was time-dependent, reaching significance after 6 h of compound incubation and resulting in 2- to 4-fold higher intensities.
Cells were seeded (1 × 10^6 cells per well) in 96-well plates, dissolved compounds were added and cells were incubated under normoxic or hypoxic cell culture conditions. Samples were measured on a BD LSRFortessa X-20 cell analyzer high throughput sampler (HTS) (BD Biosciences, East Rutherford, NJ, USA). Compound fluorescence was detected using 405 nm excitation and pacific blue (450/50 nm) band pass emission filters. […]
For orientation: A flow cytometer gives signals particle by particle.

The nature of the next data set: cyclic voltammetry. As to conditions: DMF, 0.2 M [n-Bu4N][BF4], 1.5 mM complex, scan rate 100 mV s^-1. The class given is physicochemical. The method, then:
Since the redox potential is a crucial characteristic for the activation of cobalt(III)-based prodrugs systems, we investigated the novel complexes by cyclic voltammetry in comparison to Co(acac)2LEGFR. Measurements were performed in dimethylformamide (DMF) (+0.2 M [n-Bu4N][BF4]) at a scan speed of 100 mV s^−1. […] Even at a higher scan speed of 1000 mV s^−1, the redox processes were still completely irreversible for all complexes (Fig. S5 ^†).
The compounds were dissolved in DMF (+0.2 M [n-Bu4N][BF4]) to obtain a final concentration of 1.5 mM. Electrochemical experiments were conducted on an EG&G PARC 273A potentiostat/galvanostat with a scan rate of 100–1000 mV s^−1 at room temperature. Argon was bubbled through the solution before every measurement to remove oxygen. A three-electrode configuration cell was used with a glassy carbon electrode as working electrode, which was polished before every measurement. The reference electrode was Ag/Ag^+/ACN (10 mM AgNO3) and the auxiliary electrode was a platinum wire. The potentials were referenced to an internal standard redox couple of ferrocenium/ferrocene and calculated to the NHE (E1/2 = +0.72 V vs. NHE).[63] […] Redox potentials measured relative to the Ag/AgCl/KCl (3.5 M) reference electrode and converted to the NHE using +0.205 V. Measurements were at least repeated three times and the mean values were calculated.

Data set [1] is described as follows: serum stability in fetal calf serum (HPLC-MS). The class given is in vitro ADME. As to conditions: 37 °C. The method, then: Therefore, we only investigated the stability of the novel complexes in fetal calf serum (FCS). As reference again Co(acac)2LEGFR[26] was included. The complexes were dissolved in 50 mM phosphate puffer and mixed 1 : 10 with fetal calf serum (FCS; buffered with 150 mM phosphate buffer to keep a stable pH of 7.4) to a final concentration of 50 μM. The samples were incubated at 37 °C and after 0, 2, 4, 6, 24 and 26 h extracted with acetonitrile and measured by HPLC-MS. […] This indeed confirms, that by avoiding the direct attachment of the ethylenediamine moiety to an aromatic ring system, complexes with much higher stability can be generated. Since no distinct difference in stability between Co(acac)2LPon and Co(Meacac)2LPon within 26 h could be observed, measurements were repeated up to 72 h.
For serum stability measurements, 135 μL FCS, buffered with 150 mM phosphate (Na2HPO4/NaH2PO4) to maintain a pH value of 7.4, were mixed with 15 μL of a 500 μM stock solution of the respective complex in 50 mM phosphate buffer to reach a final concentration of 50 μM. The samples were incubated at 37 °C. At different time points to 20 μL serum 40 μL of ACN were added. After vigorously shaking for 2 min the suspension was centrifuged at 6000 rpm for 10 min. The supernatant was taken with a syringe and directly measured via HPLC-MS. The samples were analyzed on an Agilent 1260 Infinity system using a Waters Atlantis T3 column (150 mm × 4.6 mm) coupled to a Bruker Amazon SL ESI-IT mass spectrometer. Water and acetonitrile (both containing 0.1% formic acid) were used as eluents with a gradient of 1–99% acetonitrile within 29 min.

In a further data set the test system is H1975. To be noted: cited from earlier work.
In a further data set the test system is A431. As to conditions: cited from earlier work.
The subject of the next data set is UM-UC-14 cells. The data set can be described thus: ligand release by UV fluorescence microscopy. The class given is cell-based, human. As to conditions: 10 μM, 24 h, UM-UC-14, fluorescence microscopy. The procedure: The enhanced stability of Co(acac)2LPon under normoxia and its hypoxia-induced ligand release was subsequently confirmed by fluorescence microscopy. Fluorescence intensities indicated a ∼2.8-fold decreased stability of the cobalt(III) complex under hypoxic vs. normoxic cell culture conditions.
UM-UC-14 cells were seeded (2.5 × 10^5 cells per well) in 12-well plates and after 24 h recovery treated with 10 μM of compounds. After 24 h incubation, the drug solutions were removed, cells were washed with PBS and microphotographs of the different treatments were taken using UV fluorescence microscopy (Nikon Eclipse Ti2 microscope with a DAPI filter and a high-pressure mercury lamp) and a 20× objective. The level of cellular fluorescence was determined from fluorescence microscopy images using ImageJ software.
Figure S9: Ligand release of Co(acac)2LPon under normoxic and hypoxic cell culture conditions in comparison to LPon using UV fluorescence microscopy. UM-UC-14 cells were incubated with 10 µM of compounds for 24 h. Images of the different treatments were taken by UV fluorescence microcopy (20X objective) and the corrected total cell fluorescence was evaluated using ImageJ software. Data in Figure S9B are given as means ± SD of ten analyzed microphotographs per compound. Statistical significance was calculated by unpaired t test with p < .05(*). […]

Data set [2] relates to BCR-ABL-positive K-562 leukemic cells. The data set can be described thus: MTT vitality assay, 72 h, normoxic vs hypoxic. The class given is cell-based. To be noted: Homo sapiens, K562, 72 h, printed in picture Fig. 9A, read-out: IC50, K-562 cell viability. A general note: Tetrazolium dyes change colour on reduction, which living cells bring about.
Protocol: In case of hypoxic cell culture conditions, plated and treated cells were incubated at 37 °C, 5% CO2 and 0.1% O2 (ProOx Model C21 system, BioSpherix) in humidified incubators for the indicated time point before analysis. All investigated compounds were dissolved in dimethyl sulfoxide (DMSO) as 10 mM stock solutions and were stored at −20 °C. Dilutions in culture media supplemented with 10% fetal calf serum were made immediately before the experiments at the indicated concentrations. Corresponding dilutions of DMSO were used as untreated vehicle controls.
Cells were seeded (3–7 × 10^4 cells per well) in 96-well plates and after 24 h recovery treated with increasing concentrations of compounds in triplicates. After 72 h drug exposure under normoxic or hypoxic cell culture conditions (0.1% O2) (ProOx Model C21 system, BioSpherix), the proportion of viable cells was determined by 3-(4,5-dimethylthiazol-2-yl)-2,5-diphenyltetrazolium bromide (MTT)-vitality assay (EZ4U, Biomedica, Vienna, Austria) or by luminescence assay based on adenosine triphosphate quantification (CellTiter-Glo, Promega, Madison, Wisconsin) following the manufacturer's recommendations. […] MTT-derived cytotoxicity was expressed as IC50 values calculated from full dose–response curves using GraphPad Prism software (La Jolla, CA).
Data set [3] deals with p-ERK1/2 and p-S6 in K-562 cells. The data set can be described thus: western blot of downstream signalling, 12 h. As to conditions: K-562, 12 h, western blot. The class given is cell-based, human. The method, then: Fig. 10 Impact of the cobalt(III) complexes on the ERK1/2 and S6 under normoxic and hypoxic conditions. K-562 cells were treated with the compounds, after 12 h cell lysates were prepared and protein expression as well as phosphorylation levels of downstream pathways (p-ERK1/2 and p-S6) analyzed by western blotting. One representative experiment out of three is shown. The ratio of phosphorylated to total protein is given between the respective lanes.
K-562 cells were plated (5 × 10^5 cells per well) in 6-well plates and allowed to recover for 24 h. Subsequently, the cells were treated with the drugs in different concentrations. After 12 h cells were harvested, proteins were isolated, resolved by sodium dodecyl sulfate polyacrylamide gel electrophoresis (SDS/PAGE), and transferred onto a polyvinylidene difluoride membrane for western blotting. The following antibodies were used: ERK1/2 (p44/42) rabbit monoclonal antibody (mAb) (137F5, #4695), phospho-ERK1/2 rabbit mAb (Thr202/Tyr204) (20G11, #4376), phospho-S6 rabbit pAb (Ser240/244, #2215) (Cell Signaling Technology, Beverly, MA, USA), S6 mouse mAb (C-8. #sc-74459) (Santa Cruz Biotechnology, TX, USA) and β-actin mouse mAb (#A5441, Sigma). All primary antibodies were used in 1 : 1000 dilutions (in Tris-buffered saline containing 0.1% Tween20 (TBST) + 3% bovine serum albumin (BSA)). Secondary goat anti-mouse-IgG (Fc specific)-peroxidase antibody (#A0168, Sigma) and horseradish peroxidase(HRP)-labeled mouse anti-rabbit IgG (#sc-2357, Santa Cruz Biotechnology) were used at working dilutions of 1 : 10 000 (in TBST + 1% BSA).
(Immunoblotting shows a protein as a band on a membrane.)

For the next data set, the target named is ABL1 (Homo sapiens, UniProt P00519). The data set can be described thus: cell-free kinase inhibition assay (Z'-LYTE, SelectScreen). The class given is biochemical. As to conditions: 10-fold excess of ATP, 1% DMSO, read-out: IC50 against ABL1. An excerpt: (§1) The test compounds were screened in a final concentration of 1% DMSO using the Z′-LYTE® Assay.
Another data set deals with FGFR1 (Homo sapiens, UniProt P11362). The description is as above. The class given is biochemical.
Source text: as §1

Setting [4] is: normoxic as well as hypoxic conditions.

FGFR1, sequence (P11362 22-822): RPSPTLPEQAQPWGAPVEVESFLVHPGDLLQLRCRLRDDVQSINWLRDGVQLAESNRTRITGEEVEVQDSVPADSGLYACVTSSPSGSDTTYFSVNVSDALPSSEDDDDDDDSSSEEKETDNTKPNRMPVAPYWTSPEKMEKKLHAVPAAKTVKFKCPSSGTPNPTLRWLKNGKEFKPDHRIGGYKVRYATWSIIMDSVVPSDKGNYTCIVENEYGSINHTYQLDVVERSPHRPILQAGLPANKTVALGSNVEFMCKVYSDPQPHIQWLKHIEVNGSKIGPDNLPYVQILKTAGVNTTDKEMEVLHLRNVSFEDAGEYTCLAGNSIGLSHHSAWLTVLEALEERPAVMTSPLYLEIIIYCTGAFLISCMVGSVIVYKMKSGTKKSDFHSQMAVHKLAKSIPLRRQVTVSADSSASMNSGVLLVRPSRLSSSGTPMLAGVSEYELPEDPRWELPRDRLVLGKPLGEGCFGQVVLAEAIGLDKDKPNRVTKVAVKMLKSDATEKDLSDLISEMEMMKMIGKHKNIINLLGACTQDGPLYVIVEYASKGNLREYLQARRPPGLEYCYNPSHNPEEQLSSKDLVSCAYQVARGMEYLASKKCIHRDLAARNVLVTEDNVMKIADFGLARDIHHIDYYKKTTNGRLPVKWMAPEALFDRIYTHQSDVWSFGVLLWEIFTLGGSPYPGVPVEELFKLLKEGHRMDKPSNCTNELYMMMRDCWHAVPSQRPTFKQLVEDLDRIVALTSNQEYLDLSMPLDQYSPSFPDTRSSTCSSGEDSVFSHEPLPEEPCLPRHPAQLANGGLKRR
ABL1, sequence (P00519 whole entry): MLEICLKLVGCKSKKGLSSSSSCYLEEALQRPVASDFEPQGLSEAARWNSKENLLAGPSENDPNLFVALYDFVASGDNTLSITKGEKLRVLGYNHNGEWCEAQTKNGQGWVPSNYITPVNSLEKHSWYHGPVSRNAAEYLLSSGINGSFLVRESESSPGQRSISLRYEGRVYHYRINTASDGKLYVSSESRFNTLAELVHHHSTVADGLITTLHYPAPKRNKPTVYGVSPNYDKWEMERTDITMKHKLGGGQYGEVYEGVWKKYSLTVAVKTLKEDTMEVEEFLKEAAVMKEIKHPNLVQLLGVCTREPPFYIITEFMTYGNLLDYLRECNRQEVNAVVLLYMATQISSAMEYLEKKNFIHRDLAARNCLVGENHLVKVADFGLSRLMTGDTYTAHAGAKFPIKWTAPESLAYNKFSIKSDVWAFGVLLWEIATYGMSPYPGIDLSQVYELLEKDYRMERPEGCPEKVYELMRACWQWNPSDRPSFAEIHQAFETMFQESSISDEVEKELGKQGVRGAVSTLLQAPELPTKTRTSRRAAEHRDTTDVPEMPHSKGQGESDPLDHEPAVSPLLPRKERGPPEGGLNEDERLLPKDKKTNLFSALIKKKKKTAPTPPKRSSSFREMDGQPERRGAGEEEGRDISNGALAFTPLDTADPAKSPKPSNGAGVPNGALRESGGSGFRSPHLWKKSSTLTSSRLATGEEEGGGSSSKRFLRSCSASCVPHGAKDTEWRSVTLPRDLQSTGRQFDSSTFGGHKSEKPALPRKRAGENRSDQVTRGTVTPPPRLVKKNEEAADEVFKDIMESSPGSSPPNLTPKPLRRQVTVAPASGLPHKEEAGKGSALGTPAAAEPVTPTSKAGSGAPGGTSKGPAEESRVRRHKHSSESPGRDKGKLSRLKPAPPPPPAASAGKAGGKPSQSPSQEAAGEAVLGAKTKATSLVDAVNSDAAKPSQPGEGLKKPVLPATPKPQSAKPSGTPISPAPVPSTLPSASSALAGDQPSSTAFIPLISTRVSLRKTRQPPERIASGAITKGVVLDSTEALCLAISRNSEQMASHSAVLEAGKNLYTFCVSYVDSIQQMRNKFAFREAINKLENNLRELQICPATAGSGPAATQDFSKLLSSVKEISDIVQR

Turning to `CC(=O)C(C)=C(C)[O-].CC(=O)C(C)=C(C)[O-].Cc1ccc(C(=O)Nc2ccc(CNCCN)c(C(F)(F)F)c2)cc1C#Cc1cnc2cccnn12.O=C(O)C(F)(F)F.[Co+3]` [Co(Meacac)2LPon, Bis(3-methyl-2,4-pentanedionato) N-(4-(((2-aminoethyl)amino)methyl)-3-(trifluoromethyl)phenyl)-3-(imidazo[1,2-b]pyridazin-3-ylethynyl)-4-methylbenzamide cobalt(III) 2,2,2-trifluoroacetate], the “cell-associated fluorescence, fold lower than the free ligand” value in the data set with K-562 cells is “more than 7.5 fold”. For the same compound, in “cyclic voltammetry”, the “cathodic peak potential (Co(III) to Co(II), irreversible)” value was −442 mV vs. NHE. Moreover, in [1] (26 h, pH 7.4, 50 μM), the “intact complex remaining in FCS” value is listed as around 90%. Further, the “intact compound remaining in FCS” value in [1] (72 h, pH 7.4) is reported as around 80%.
With `[Cl-].[Cl-].[Co+2]` [CoCl2], the cytotoxic activity result in the data set with H1975 and in the data set with A431 was “no significant cytotoxic activity” in each case.
Consider `Cc1ccc(C(=O)Nc2ccc(CNCCN)c(C(F)(F)F)c2)cc1C#Cc1cnc2cccnn12` [LPon, N-(4-(((2-Aminoethyl)amino)methyl)-3-(trifluoromethyl)phenyl)-3-(imidazo[1,2-b]pyridazin-3 ylethynyl)-4-methylbenzamide·3TFA], for which the “fluorescence intensity change (decreased stability) hypoxic vs. normoxic” value in the data set on UM-UC-14 cells is “remained unaffected”. Also, the IC50 in [2] (hypoxic (H, 0.1% O2)) came to 3.67 nM; in [2] (normoxic (N, 21% O2)), 4.57 nM; on ABL1, 1.93 nM; on FGFR1 (cell-free, 10-fold excess of ATP, 1% DMSO, read-out: IC50 against FGFR1), 25.9 nM. Also, the “activity on ERK1/2 and S6 phosphorylation, normoxic vs hypoxic” value in [3] is “equally active under the two oxygen conditions”. Also, the “factor by which FGFR inhibition is weaker than ponatinib” value on FGFR1 (cell-free IC50 ratio vs ponatinib) is listed as around 5.
Take `CC(=O)[CH-]C(C)=O.CC(=O)[CH-]C(C)=O.NCCN.[Co+2]` [[Co(II)(acac)2en]]: the cytotoxic activity entry in the data set on H1975 (setting [4]) and in the data set with A431 (setting [4]) was “no significant cytotoxic activity” in each case.
Consider `CC(=O)[CH-]C(C)=O.CC(=O)[CH-]C(C)=O.F[P-](F)(F)(F)(F)F.NCCN.[Co+3]` [[Co(III)(acac)2en]PF6], for which the cytotoxic activity entry with H1975 (setting [4]) and with A431 (setting [4]) was “no significant cytotoxic activity” in each case.

For orientation: IC50 means the concentration that gives 50% inhibition.
